Data as given in patent US5331089A, “Peptides useful as tachykinin agonists” (Merck Sharpe & Dohme, Ltd., priority 1988, dated 1994).
Where a SMILES comes first, the peptide text is derived from it.

Target: T1, NK-2 tachykinin receptor (Rattus norvegicus, UniProt P16610)
T1 construct: The vas deferens is dissected free from the surrounding connective tissue and suspended in a 3 ml organ bath; from tissue; host or cells: isolated rat vas deferens (male Wistar rat), longitudinal muscle
T1 sequence (P16610 1-390): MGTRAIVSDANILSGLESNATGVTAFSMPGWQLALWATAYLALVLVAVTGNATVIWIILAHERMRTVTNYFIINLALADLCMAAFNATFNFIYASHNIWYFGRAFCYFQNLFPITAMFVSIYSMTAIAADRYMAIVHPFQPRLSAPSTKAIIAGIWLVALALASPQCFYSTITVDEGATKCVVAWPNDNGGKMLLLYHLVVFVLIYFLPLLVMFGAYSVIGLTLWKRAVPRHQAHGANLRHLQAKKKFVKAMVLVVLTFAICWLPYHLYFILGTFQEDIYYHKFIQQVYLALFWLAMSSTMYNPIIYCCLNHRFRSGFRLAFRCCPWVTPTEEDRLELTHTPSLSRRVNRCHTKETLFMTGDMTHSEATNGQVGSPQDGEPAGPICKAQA
Assay: Isolated rat vas deferens preparation: antagonism of eledoisin-induced increase in field-stimulated twitch
Type: cell-based
Conditions: isolated Wistar rat vas deferens, eledoisin as standard agonist, pA2 (-logKb) estimated from dose ratio; for Kb: read-out: pA2 (against eledoisin) (converted)
Protocol: The activity of the compounds of the accompanying Examples as tachykinin receptor antagonists was evaluated using the following method:
The tachykinin receptor present in the longitudinal muscle of the rat vas deferens has been characterised, using natural and synthetic tachykinins, as `NK-2`. This preparation is therefore used to determine the selectivity and potency of the peptides for this receptor sub-type.
Male Wistar rats weighing 200-300 g are killed by decapitation. The vas deferens is dissected free from the surrounding connective tissue and suspended in a 3 ml organ bath under an initial resting tension of 1 g. The tissue is maintained at 37° C. in modified KREBS HENSALEIT solution (NaCl 118.4, KCl 4.7, CaCl2 2.5, KH2 PO4 1.18, MgSO4.7H2 O 1.19, NaHCO3 25.0, D-glucose 11.1 mM), which is continuously gassed with a mixture of 95% O2 and 5% CO2. Field stimulated responses are elicited by trains of pulses delivered for 1 second every 20 seconds (7 Hz, 70-80 V, individual pulse duration 0.5 ms). […] Contractions remain reasonably constant for 3-4 hours with no spontaneous changes in resting tension. A dose-cycle of 10-15 minutes is used, drug contact time being about 3-5 minutes.
In all experiments eledoisin is used as a standard agonist. Eledoisin, in the dose range 10^-8 -3×10^-6 M, produces a dose-related increase in twitch height and, to a lesser extent, basal tension. A second dose-response curve is then constructed to the peptide under investigation.
To determine the potency of each peptide as an NK-2 antagonist, the test compound is added to the bathing medium, at an appropriate concentration, 20-30 minutes before the first dose of the second eledoisin dose-response curve. Thereafter addition of the test compound 5-10 minutes before the eledoisin dose is sufficient. The percentage increase in twitch produced by eledoisin in the presence and absence of the antagonist is expressed as a percentage of the maximum response of each individual dose-response curve. Thus all dose-response curves have the same maximum. From the dose ratio an estimate of the pA2 (-logKb) for each test compound can be determined:
pA2 =log[(DR-1)/(antagonist conc.)]

Compound | Kb [nM] | pA2 (against eledoisin)
CSCC[C@@H]1NC(=O)[C@H](CC(C)C)NC(=O)CNC(=O)[C@H](Cc2ccccc2)NC(=O)[C@H](Cc2c[nH]c3ccccc23)NC(=O)[C@H](CCC(N)=O)NC1=O [Example 3, Cyclo (Gln-Trp-Phe-Gly-Leu-Met)] (cyclo(FGLMQW)) | 10 | 
CSCC[C@@H]1NC(=O)[C@H](CC(C)C)N2CC[C@@H](NC(=O)[C@H](Cc3ccccc3)N(C)C(=O)[C@@H](Cc3c[nH]c4ccccc34)NC(=O)[C@H](CCC(N)=O)NC(=O)[C@H](CCSC)NC(=O)[C@H](CC(C)C)N3CC[C@@H](NC(=O)[C@H](Cc4ccccc4)N(C)C(=O)[C@@H](Cc4c[nH]c5ccccc45)NC(=O)[C@H](CCC(N)=O)NC1=O)C3=O)C2=O [Example 5b, cyclo (Gln-D-Trp-(N-Me)Phe-(R)Gly[ANC-2]Leu-Met2] | 7940 | 
Ac-LMQWFG-NH2 [Example 6, Acetyl-Leu-Met-Gln-Trp-Phe-Gly-NH2] | 158 | 
Cyclo(Gln-Npa-Phe-(R)Gly[ANC-2]Leu-Met) [Example 2] |  | 5.6
